Measurements published in ChEMBL document CHEMBL1201862, “PubChem BioAssay data set” (2004).
The source made the active and inactive calls. Rule as the data show it, for most assays here: actives have a measured EC50 and inactives only a lower limit.

How the values were obtained:
[1] = molecular target: T1, Polyadenylate-binding protein 1 (Homo sapiens, UniProt P11940); assay: MLLE binding blockers, Cy5 peptide tracer – biochemical, fluorescence polarization, Cy5-PAM2 peptide, secondary, miRNA deadenylation inhibitor project, dose response (AID 602260); format: functional; settings: read-out: IC50_Mean
T1 sequence (P11940 whole entry, the tested form may be a part): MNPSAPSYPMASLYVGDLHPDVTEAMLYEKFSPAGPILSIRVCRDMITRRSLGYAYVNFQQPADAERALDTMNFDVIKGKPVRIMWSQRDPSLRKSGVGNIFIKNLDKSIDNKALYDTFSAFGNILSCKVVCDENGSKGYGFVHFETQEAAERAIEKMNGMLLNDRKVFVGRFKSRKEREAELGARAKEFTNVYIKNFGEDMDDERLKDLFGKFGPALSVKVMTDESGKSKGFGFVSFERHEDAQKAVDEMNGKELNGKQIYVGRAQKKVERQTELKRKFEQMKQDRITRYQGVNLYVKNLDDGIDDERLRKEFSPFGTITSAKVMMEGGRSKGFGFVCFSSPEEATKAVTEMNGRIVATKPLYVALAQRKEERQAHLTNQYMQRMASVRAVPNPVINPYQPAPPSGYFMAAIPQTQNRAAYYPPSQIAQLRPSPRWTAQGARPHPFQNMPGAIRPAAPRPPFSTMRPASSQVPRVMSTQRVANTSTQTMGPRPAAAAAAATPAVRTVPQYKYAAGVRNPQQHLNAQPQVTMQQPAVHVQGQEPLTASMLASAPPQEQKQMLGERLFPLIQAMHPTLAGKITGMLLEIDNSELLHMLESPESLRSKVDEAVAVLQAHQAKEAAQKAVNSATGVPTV

[2] = molecular target: T1, Polyadenylate-binding protein 1; assay: MLLE domain peptide-binding blockers, IC50 – biochemical, fluorescence polarization, FITC-PAM2 peptide, dose response (AID 602259); format: functional; settings: read-out: IC50_Mean
[3] = alpha-synuclein stem-loop luciferase translation blockers – H4 neuroglioma cells, luminescence, confirmation (AID 1988); format: functional, cell-based
[4] = luciferase reporter signal suppression in cells – H4 neuroglioma cells, luminescence, dose response (AID 1990); format: functional, cell-based
[5] = Luminescence Cell-Based Dose Response HTS to Identify Inhibitors of 5'UTR Stem-Loop Driven Prion Protein mRNA Translation in H4 Neuroglioblastoma Cells. [Related pubchem assays: 1827 (Project Summary), 1813 (Primary HTS)]; format: functional
[6] = molecular target: T2, Carboxy-terminal domain RNA polymerase II polypeptide A small phosphatase 1 (Homo sapiens, UniProt Q9GZU7); assay: CTDSP1 inhibitors, concentration-response, biochemical, absorbance readout, ultra-high-throughput screen actives (AID 540297); format: functional
T2 sequence (Q9GZU7 whole entry): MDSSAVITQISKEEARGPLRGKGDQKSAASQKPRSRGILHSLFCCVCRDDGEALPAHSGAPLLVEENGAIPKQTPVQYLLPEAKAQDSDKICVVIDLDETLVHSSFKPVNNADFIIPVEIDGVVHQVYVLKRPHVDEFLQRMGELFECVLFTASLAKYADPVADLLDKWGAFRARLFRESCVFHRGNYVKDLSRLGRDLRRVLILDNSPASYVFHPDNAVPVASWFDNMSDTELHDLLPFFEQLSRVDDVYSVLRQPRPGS

[7] = DRD fibroblast viability loss – cell-based, non-viral oncogenic, luminescence, dose response (AID 1934); format: functional; settings: Homo sapiens
BJ [8] = assay: BJ-TERT fibroblast viability loss – cell-based, RAS-independent, luminescence, dose response (AID 1933); format: functional; settings: Homo sapiens
BJ [9] = assay: cells; format: functional, cell-based; settings: Homo sapiens
BJ [10] = assay: BJ-TERT-LT-ST fibroblast viability loss – cell-based, RAS-independent, luminescence, dose response (AID 1935); format: functional; settings: Homo sapiens;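 also: BJ fibroblasts immortalized with TERT plus LT and ST oncogenes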
[11] = Luminescence Cell-Based Dose Confirmation HTS to Identify Activators of 5'UTR Stem-Loop Driven Alpha-Synuclein mRNA Translation in H4 Neuroglioblastoma Cells. [Related pubchem assays: 1829 (Project Summary), 1814 (Primary HTS)]; format: functional
H4 = assay: Luminescence Cell-Based Dose Response HTS to Identify Activators of 5'UTR Stem-Loop Driven Prion Protein mRNA Translation in H4 Neuroglioblastoma Cells. [Related pubchem assays: 1829 (Project Summary), 1814 (Primary HTS)]; format: functional; settings: Homo sapiens
[12] = Luminescence Cell-Based Dose Response HTS to Identify Activators of Luciferase Translation or Activity in H4 […] Cells. [Related pubchem assays: 1829 (Project Summary), 1814 (Primary HTS)]; format: functional
[13] = molecular target: T3, Heat shock factor protein 1 (Mus musculus, UniProt P38532); assay: decrease of HSF1-responsive luciferase luminescence – cell-based, NIH3T3, dose retest, confirmation (AID 2382); format: functional;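 also: NIH3T3 fibroblasts with HSF1-driven luciferase reporter stressed by proteasome inhibitor MG132; luminescence from HSF1-driven luciferase expression after 8 hours of MG132 stress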
T3 sequence (P38532 whole entry): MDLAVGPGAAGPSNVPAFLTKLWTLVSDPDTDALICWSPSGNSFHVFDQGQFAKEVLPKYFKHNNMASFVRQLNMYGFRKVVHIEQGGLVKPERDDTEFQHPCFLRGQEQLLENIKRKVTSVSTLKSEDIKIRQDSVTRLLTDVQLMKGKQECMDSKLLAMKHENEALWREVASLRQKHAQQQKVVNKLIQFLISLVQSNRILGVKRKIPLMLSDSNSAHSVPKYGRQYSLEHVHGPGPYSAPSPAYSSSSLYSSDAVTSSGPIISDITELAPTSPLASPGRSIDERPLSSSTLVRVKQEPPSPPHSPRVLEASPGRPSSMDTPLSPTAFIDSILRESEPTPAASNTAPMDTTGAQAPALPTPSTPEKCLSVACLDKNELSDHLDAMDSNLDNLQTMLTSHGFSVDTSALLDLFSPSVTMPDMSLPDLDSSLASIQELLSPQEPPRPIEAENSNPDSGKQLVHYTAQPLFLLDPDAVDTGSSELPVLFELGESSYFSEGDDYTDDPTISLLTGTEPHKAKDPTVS

Protein RecA = molecular target: T4, Protein RecA (Mycobacterium tuberculosis, UniProt P9WHJ3); assay: Fluorescence Cell-Free Homogeneous Dose Retest to Identify Inhibitors of RecA-Intein Splicing Activity. [Related pubchem assays (depositor defined):AID2097, AID2223, AID489010, AID492950]; format: functional
T4 sequence (P9WHJ3 whole entry): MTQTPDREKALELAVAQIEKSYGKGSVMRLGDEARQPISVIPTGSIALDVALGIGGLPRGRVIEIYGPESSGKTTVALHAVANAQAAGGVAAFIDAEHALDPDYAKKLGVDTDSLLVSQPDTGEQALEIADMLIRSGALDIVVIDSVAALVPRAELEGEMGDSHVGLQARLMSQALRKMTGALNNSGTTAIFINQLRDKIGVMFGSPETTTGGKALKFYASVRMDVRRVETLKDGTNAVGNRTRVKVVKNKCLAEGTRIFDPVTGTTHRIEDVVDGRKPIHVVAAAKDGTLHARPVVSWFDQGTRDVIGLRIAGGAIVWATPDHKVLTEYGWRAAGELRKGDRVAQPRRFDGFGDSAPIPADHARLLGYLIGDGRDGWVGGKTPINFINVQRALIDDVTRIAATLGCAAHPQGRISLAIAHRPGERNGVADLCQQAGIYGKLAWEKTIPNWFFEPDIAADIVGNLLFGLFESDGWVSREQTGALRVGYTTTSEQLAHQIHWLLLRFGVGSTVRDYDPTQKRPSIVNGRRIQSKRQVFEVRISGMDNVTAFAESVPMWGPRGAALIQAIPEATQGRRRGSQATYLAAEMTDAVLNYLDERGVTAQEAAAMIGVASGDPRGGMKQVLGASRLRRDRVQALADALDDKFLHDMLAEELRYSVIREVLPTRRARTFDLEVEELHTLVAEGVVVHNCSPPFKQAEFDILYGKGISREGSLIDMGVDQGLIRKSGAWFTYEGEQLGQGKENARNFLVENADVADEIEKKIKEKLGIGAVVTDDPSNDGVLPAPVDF

[14] = Luminescence Cell-Based Dose Retest to Confirm Inhibitors of Cancer Stem Cells. [Related pubchem assays (depositor defined):AID2717, AID2721]; format: functional; settings: Homo sapiens
Streptococcus = assay: GAS UMAA2166 growth inhibition – luminescence, BacTiterGlo, counter-screen for streptokinase expression inhibitor project, dose response (AID 1915); format: functional, organism-based; settings: Streptococcus;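 also: potency for reduction of bacterial viability or growth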
[15] = test system: Streptococcus sp. 'group A'; assay: Streptococcus pyogenes SK(-)GAS viability under kanamycin – luminescence, BacTiterGlo, confirmation, counter-screen for streptokinase expression inhibitor project, dose response (AID 1900); format: functional, organism-based; settings: Streptococcus sp. 'group A'
Streptokinase A = molecular target: T5, Streptokinase A (Streptococcus pyogenes serotype M1, UniProt P10520); assay: viability-normalized secreted streptokinase activity reduction – plasminogen activation absorbance, OD405, dose response (AID 1914); format: functional, Streptococcus pyogenes M1 GAS;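 also: secreted streptokinase activity via plasminogen activation per viability signal from cell pellet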
T5 sequence (P10520 whole entry): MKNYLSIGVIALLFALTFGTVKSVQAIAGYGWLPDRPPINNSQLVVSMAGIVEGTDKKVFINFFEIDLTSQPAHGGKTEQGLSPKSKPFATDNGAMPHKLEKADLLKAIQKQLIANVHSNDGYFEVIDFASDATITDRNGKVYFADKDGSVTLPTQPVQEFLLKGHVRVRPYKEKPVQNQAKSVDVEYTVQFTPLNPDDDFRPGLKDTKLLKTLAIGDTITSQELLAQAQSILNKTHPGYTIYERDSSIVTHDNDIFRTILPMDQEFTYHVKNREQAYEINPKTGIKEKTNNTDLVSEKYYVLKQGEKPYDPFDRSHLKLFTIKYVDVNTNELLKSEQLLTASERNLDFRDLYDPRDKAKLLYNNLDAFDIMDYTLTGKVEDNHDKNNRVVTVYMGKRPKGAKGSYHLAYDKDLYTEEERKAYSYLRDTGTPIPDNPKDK
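For AC50 in this document: cells exposed to compound for roughly 70 hours or longer before luminescence read.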

CC(C)C(NC(=O)c1ccccc1)C(=O)NC1=NCCS1 (centres undefined)
IC50 [1]: > 66 µM (inactive)
IC50 [2]: > 66 µM (inactive)

CC(C)n1c(SCC(=O)N2c3ccccc3Sc3ccccc32)nc2c1c(=O)n(C)c(=O)n2C
EC50 [3]: 22.2 µM (active)
EC50 [4]: 13.3 µM (active)
EC50 [5]: 13.6 µM (active)

Cc1cc2ncc(S(C)(=O)=O)c(N)n2n1
EC50 [3]: > 120 µM (not active)
EC50 [4]: > 120 µM (not active)
EC50 [5]: > 120 µM (not active)

COC(=O)C1=C(Nc2ccc(C)cc2)C=C(C)C(C(=O)OC)C1c1ccc(OC)cc1 (centres undefined)
EC50 [3]: 11 µM (active)
EC50 [4]: > 120 µM (not active)
EC50 [5]: 15.5 µM (active)

O=C(CCS(=O)(=O)c1ccc(Br)cc1)NCCC1=CCCCC1
IC50 [6]: 9.5 µM (active)

N#C/C(=C\c1cccnc1)c1nc2ccccc2[nH]1
EC50 [7]: 38 µM (active)
EC50 (BJ [8]): 23.5 µM (active)
EC50 (BJ [9]): > 150 µM (not active)
EC50 (BJ [10]): > 75 µM (not active)

Cc1cc(=O)oc2cc(NC(=O)c3cc(F)ccc3F)ccc12
IC50 [6]: 6.83 µM (active)

O=C(CSc1ncn(-c2ccccc2)n1)c1cccs1
EC50 [11]: 0.255 µM (active)
EC50 (H4): > 120 µM (not active)
EC50 [12]: 25.5 µM (active)
IC50 [1]: > 66 µM (inactive)
IC50 [2]: > 66 µM (inactive)

Cc1ccc(O)c(NC(=S)NC(=O)/C=C/c2ccccc2)c1
IC50 [1]: > 66 µM (inactive)
IC50 [2]: > 66 µM (inactive)

CCOc1cc(C2C3=C(O)CCCC3=NC3=C2C(=O)CCC3)ccc1OCCO (centres undefined)
IC50 [1]: > 66 µM (inactive)
IC50 [2]: > 66 µM (inactive)

O=C(CCl)Nc1ccccc1C(=O)c1ccccc1
EC50 [7]: 35.3 µM (active)
EC50 (BJ [8]): > 150 µM (not active)
EC50 (BJ [9]): > 150 µM (not active)
EC50 (BJ [10]): > 150 µM (inconclusive)
EC50 [13]: > 195 µM (not active)

N#CC1=C(N)N=C(SCc2cccc3ccccc23)C(C(N)=O)C12CCCCC2 (centres undefined)
IC50 [1]: > 66 µM (inactive)
IC50 [2]: > 66 µM (inactive)

COc1ccccc1-c1cnnc(S)n1
EC50 (Protein RecA): 111 µM (active)

O=C(COC(=O)/C=C/c1ccco1)Nc1ccc(F)cc1Cl
IC50 [6]: 36.6 µM (active)

CNC(=S)N/N=C/c1cn(Cc2ccc(C)cc2)c2ccccc12
AC50 [14]: 3.07 µM (active)
EC50 (Streptococcus): 28 µM (active)
EC50 [15]: 5.29 µM (active)
EC50 (Streptokinase A): 74.1 µM (active)
